Laboratory results reported in US20070117743A1, “New antitumoral compounds” (priority 2003, published 2007).
Read-outs that look alike come from different tables or passages of the source. Where a SMILES comes first, the peptide text is derived from it. Bridges are numbered along the chain shown (N, C = ends). [ ]: non-standard residue; d: D form. The star is where a group is joined. d(aThr) = C[C@@H](O)[C@@H](N)C(=O)O; Hexanoyl(5-Me) = CC(C)CCCC(=O)*; Orn = NCCC[C@H](N)C(=O)O; Dhb = C/C=C(\N)C(=O)O

Experiments:
Type in all cases: cell-based, human
A-549 = experiment: SRB colorimetric assay of cell growth and viability, A-549; settings: 48 hours exposure; for GI50: read-out: GI50 A-549; for CC50: read-out: LC50 A-549
SK-MEL-28 = experiment: SRB colorimetric assay of cell growth and viability, SK-MEL-28; settings: 48 hours exposure; for CC50: read-out: LC50 MEL-28
HT-29 = experiment: SRB colorimetric assay of cell growth and viability, HT-29; settings: 48 hours exposure; for GI50: read-out: GI50 HT-29; for CC50: read-out: LC50 HT-29
LoVo = experiment: SRB colorimetric assay of cell growth and viability, LoVo; settings: 48 hours exposure; for CC50: read-out: LC50 LOVO
LoVo-Dox = experiment: SRB colorimetric assay of cell growth and viability, LoVo-Dox; settings: 48 hours exposure; for CC50: read-out: LC50 LOVO-DOX
Method in brief: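 Here, cells grow drug-free for 18 h, then receive sample dilutions from 10 down to 10^−8 μg/mL for 48 h at 37° C. Protein-bound SRB is solubilized in Tris and quantified at 490 nm.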

DU-145 = experiment: SRB colorimetric assay of cell growth and viability, DU-145; settings: 48 hours exposure
LNCaP = experiment: SRB colorimetric assay of cell growth and viability, LNCaP; settings: 48 hours exposure; for GI50: read-out: GI50 LN-caP; for CC50: read-out: LC50 LN-caP
SK-BR-3 = experiment: SRB colorimetric assay of cell growth and viability, SK-BR-3; settings: 48 hours exposure
IGROV-1 = experiment: SRB colorimetric assay of cell growth and viability, IGROV-1; settings: 48 hours exposure
IGROV-ET = experiment: SRB colorimetric assay of cell growth and viability, IGROV-ET; settings: 48 hours exposure; for CC50: read-out: LC50 IGROV-ET
HeLa = experiment: SRB colorimetric assay of cell growth and viability, HeLa; settings: 48 hours exposure; for CC50: read-out: LC50 HELA
HeLa-APL = experiment: SRB colorimetric assay of cell growth and viability, HeLa-APL; settings: 48 hours exposure; for CC50: read-out: LC50 HELA-APL
K-562 = experiment: SRB colorimetric assay of cell growth and viability, K-562; settings: 48 hours exposure; for CC50: read-out: LC50 K-562
PANC-1 = experiment: SRB colorimetric assay of cell growth and viability, PANC-1; settings: 48 hours exposure; for CC50: read-out: LC50 PANC-1

## [D,L-Ser^2]-KF [Compound 64]
A-549; SRB
  TGI A-549: 6.75E−06 Molar
  GI50: ≥ 6750 nM
  CC50: ≥ 6.75 µM
SK-MEL-28
  GI50: ≥ 6750 nM
  TGI MEL-28: 6.75E−06 Molar
  CC50: ≥ 6.75 µM
HT-29; SRB
  TGI HT-29: 6.75E−06 Molar
  GI50: ≥ 6750 nM
  CC50: ≥ 6.75 µM
LoVo; SRB
  GI50: ≥ 6750 nM
  TGI LOVO: 6.75E−06 Molar
  CC50: ≥ 6.75 µM
LoVo-Dox; SRB
  GI50: ≥ 6750 nM
  TGI LOVO-DOX: 6.75E−06 Molar
  CC50: ≥ 6.75 µM
DU-145
  GI50: ≥ 6750 nM
  LC50 (concentration causing 50% net cell kill): ≥ 6.75 µM
  TGI DU-145: 6.75E−06 Molar
LNCaP
  TGI LN-caP: 3.99E−06 Molar
  GI50: 1800 nM
  CC50: ≥ 6.75 µM
SK-BR-3
  GI50: ≥ 6750 nM
  LC50: ≥ 6.75 µM
  TGI SK-BR-3: 6.75E−06 Molar
IGROV-1
  GI50: ≥ 6750 nM
  LC50 (concentration causing 50% net cell killing): ≥ 6.75 µM
  TGI IGROV: 6.75E−06 Molar
IGROV-ET
  GI50: ≥ 6750 nM
  TGI IGROV-ET: 6.75E−06 Molar
  CC50: ≥ 6.75 µM
HeLa; SRB
  GI50: ≥ 6750 nM
  TGI HELA: 6.75E−06 Molar
  CC50: ≥ 6.75 µM
HeLa-APL; SRB
  GI50: ≥ 6.75 µM
  TGI HELA-APL: 6.75E−06 Molar
  CC50: ≥ 6.75 µM
K-562; SRB
  GI50: ≥ 6.75 µM
  TGI K-562: 6.75E−06 Molar
  CC50: ≥ 6.75 µM
PANC-1; SRB
  GI50: ≥ 6.75 µM
  TGI PANC-1: 6.75E−06 Molar
  CC50: ≥ 6.75 µM

## C/C=C1\NC(=O)[C@H](Cc2ccccc2)NC(=O)[C@@H](C(C)C)NC(=O)[C@@H](C(C)C)NC(=O)[C@H](NC(=O)[C@H](NC(=O)[C@H](CCCN)NC(=O)[C@H]2CCCN2C(=O)[C@H](NC(=O)[C@@H](NC(=O)[C@@H](NC(=O)[C@H](NC(=O)CCCC(C)C)C(C)C)[C@@H](C)O)C(C)C)C(C)C)C(C)C)[C@@H](C)OC(=O)[C@H](C(C)C)NC1=O [Compound 12, [D-Val^5, D-Val^7]-KF] ({Hexanoyl(5-Me)}-[dV]TV[dV][dP][Orn][dV][d(aThr)][dV][dV]F[Dhb]V; ester 8-C)
A-549
  TGI A-549: 6.68E−06 Molar
  GI50: 2170 nM
  CC50: 6.9 µM
SK-MEL-28
  GI50: 1680 nM
  TGI MEL-28: 3.12E−06 Molar
  CC50: 5.78 µM
HT-29
  TGI HT-29: 2.51E−06 Molar
  GI50: 1290 nM
  CC50: 4.88 µM
LoVo
  GI50: 1260 nM
  TGI LOVO: 2.28E−06 Molar
  CC50: 4.13 µM
LoVo-Dox
  GI50: 952 nM
  TGI LOVO-DOX: 1.97E−06 Molar
  CC50: 4.08 µM
DU-145
  GI50: 1610 nM
  LC50 (concentration causing 50% net cell kill): 4.92 µM
  TGI DU-145: 2.82E−06 Molar
LNCaP
  TGI LN-caP: 3.79E−08 Molar
  GI50: 2800 nM
  CC50: 5.14 µM
SK-BR-3
  GI50: 1740 nM
  LC50: 5.38 µM
  TGI SK-BR-3: 3.06E−06 Molar
IGROV-1
  GI50: 1850 nM
  LC50 (concentration causing 50% net cell killing): 4.93 µM
  TGI IGROV: 3.01E−06 Molar
IGROV-ET
  GI50: 1790 nM
  TGI IGROV-ET: 2.97E−06 Molar
  CC50: 4.93 µM
HeLa
  GI50: 1750 nM
  TGI HELA: 2.98E−06 Molar
  CC50: 5.07 µM
HeLa-APL
  GI50: 3.02 µM
  TGI HELA-APL: 6.01E−06 Molar
  CC50: 6.9 µM
K-562
  GI50: 3.19 µM
  TGI K-562: 5.46E−06 Molar
  CC50: 6.9 µM
PANC-1
  GI50: 4.67 µM
  TGI PANC-1: 6.90E−06 Molar
  CC50: 6.9 µM
